Data taken from the NIST ThermoML archive (doi:10.1016/j.jct.2017.03.033).

Assay: molar heat capacity at constant pressure
Details: Liquid, Flow calorimetry

CC(C)C [2-methylpropane]
Details | molar heat capacity at constant pressure [J/K/mol]
303.53 K, 1050 kPa | 142.52
303.55 K, 1540 kPa | 141.88
303.56 K, 2000 kPa | 141.53
303.56 K, 3020 kPa | 140.13
303.57 K, 2500 kPa | 140.83
303.59 K, 9990 kPa | 135.77
303.62 K, 4030 kPa | 139.55
303.62 K, 4500 kPa | 139.32
303.62 K, 6500 kPa | 138.1
303.62 K, 7990 kPa | 136.88
303.63 K, 6010 kPa | 138.45
303.63 K, 7030 kPa | 137.69
303.63 K, 7530 kPa | 137.34
303.63 K, 8510 kPa | 136.7
303.63 K, 9510 kPa | 136.24
303.64 K, 5000 kPa | 139.03
303.64 K, 9000 kPa | 136.47
303.65 K, 5520 kPa | 138.8
303.7 K, 3480 kPa | 139.78
303.82 K, 11510 kPa | 134.38
303.82 K, 12000 kPa | 134.2
303.86 K, 10530 kPa | 135.37
303.86 K, 11040 kPa | 134.96
313.48 K, 1040 kPa | 142.81
313.48 K, 6480 kPa | 138.39
313.49 K, 3020 kPa | 141.12
313.49 K, 7500 kPa | 138.1
313.5 K, 5530 kPa | 139.09
313.5 K, 6030 kPa | 138.56
313.5 K, 7030 kPa | 138.27
313.5 K, 8040 kPa | 137.81
313.5 K, 8480 kPa | 137.69
313.51 K, 1540 kPa | 142.46
313.51 K, 2020 kPa | 141.93
313.51 K, 2540 kPa | 141.53
313.51 K, 4010 kPa | 140.6
313.51 K, 9020 kPa | 137.52
313.52 K, 4500 kPa | 140.07
313.52 K, 9480 kPa | 137.34
313.52 K, 10060 kPa | 137.28
313.54 K, 5080 kPa | 139.26
313.55 K, 10530 kPa | 136.59
313.57 K, 11480 kPa | 136.3
313.57 K, 12050 kPa | 136.12
313.58 K, 3550 kPa | 140.95
313.58 K, 11070 kPa | 136.47
323.11 K, 1040 kPa | 146.53
323.16 K, 1510 kPa | 146.24
323.22 K, 2020 kPa | 145.77
323.23 K, 3510 kPa | 144.03
323.24 K, 2540 kPa | 145.01
323.25 K, 3020 kPa | 144.49
323.25 K, 4020 kPa | 143.62
323.27 K, 10500 kPa | 139.49
323.28 K, 4550 kPa | 143.33
323.28 K, 10980 kPa | 139.44
323.3 K, 4970 kPa | 143.04
323.31 K, 11540 kPa | 139.38
323.32 K, 5500 kPa | 142.69
323.32 K, 5980 kPa | 142.17
323.33 K, 6470 kPa | 141.7
323.33 K, 7020 kPa | 141.3
323.34 K, 11990 kPa | 139.2
323.35 K, 7470 kPa | 141.24
323.37 K, 7990 kPa | 141
323.37 K, 9480 kPa | 140.07
323.38 K, 8510 kPa | 140.77
323.38 K, 9990 kPa | 139.67
323.39 K, 9000 kPa | 140.42
333.64 K, 1050 kPa | 151.06
333.65 K, 10550 kPa | 143.33
333.65 K, 10920 kPa | 143.21
333.66 K, 5960 kPa | 145.65
333.66 K, 11520 kPa | 143.15
333.67 K, 4020 kPa | 147.05
333.67 K, 4480 kPa | 146.76
333.67 K, 9460 kPa | 143.5
333.67 K, 11930 kPa | 143.15
333.68 K, 10010 kPa | 143.62
333.69 K, 1530 kPa | 150.48
333.69 K, 5010 kPa | 146.41
333.69 K, 7030 kPa | 145.31
333.7 K, 5530 kPa | 146.12
333.7 K, 6520 kPa | 145.54
333.71 K, 3530 kPa | 147.63
333.71 K, 8510 kPa | 144.43
333.72 K, 2020 kPa | 149.84
333.72 K, 2520 kPa | 149.2
333.72 K, 8970 kPa | 144.38
333.73 K, 3050 kPa | 148.79
333.73 K, 7550 kPa | 145.13
333.74 K, 8040 kPa | 145.13
343.71 K, 1520 kPa | 159.49
343.76 K, 2030 kPa | 157.92
343.79 K, 3510 kPa | 155.13
343.81 K, 2530 kPa | 157.34
343.81 K, 3030 kPa | 155.65
343.83 K, 4010 kPa | 154.02
343.84 K, 5010 kPa | 153.09
343.85 K, 4530 kPa | 153.62
343.85 K, 6000 kPa | 151.06
343.85 K, 7500 kPa | 149.49
343.85 K, 8000 kPa | 148.27
343.85 K, 8500 kPa | 147.98
343.85 K, 10990 kPa | 145.77
343.85 K, 12010 kPa | 145.07
343.86 K, 5490 kPa | 151.93
343.86 K, 6530 kPa | 150.36
343.86 K, 10020 kPa | 146.82
343.86 K, 11480 kPa | 145.48
343.87 K, 9000 kPa | 147.51
343.87 K, 10510 kPa | 146.47
343.88 K, 7020 kPa | 150.07
343.88 K, 9490 kPa | 147.4
353.82 K, 2510 kPa | 163.9
353.85 K, 3020 kPa | 162.57
353.85 K, 9000 kPa | 152.16
353.85 K, 9500 kPa | 151.7
353.86 K, 4510 kPa | 158.62
353.87 K, 4990 kPa | 158.09
353.87 K, 6010 kPa | 156.06
353.87 K, 7000 kPa | 153.97
353.87 K, 8520 kPa | 152.22
353.87 K, 10000 kPa | 151.35
353.87 K, 10510 kPa | 151
